Assay [1] has as its target T1, Neuromedin-K receptor (Homo sapiens, UniProt P29371).
T1 sequence (P29371 whole entry): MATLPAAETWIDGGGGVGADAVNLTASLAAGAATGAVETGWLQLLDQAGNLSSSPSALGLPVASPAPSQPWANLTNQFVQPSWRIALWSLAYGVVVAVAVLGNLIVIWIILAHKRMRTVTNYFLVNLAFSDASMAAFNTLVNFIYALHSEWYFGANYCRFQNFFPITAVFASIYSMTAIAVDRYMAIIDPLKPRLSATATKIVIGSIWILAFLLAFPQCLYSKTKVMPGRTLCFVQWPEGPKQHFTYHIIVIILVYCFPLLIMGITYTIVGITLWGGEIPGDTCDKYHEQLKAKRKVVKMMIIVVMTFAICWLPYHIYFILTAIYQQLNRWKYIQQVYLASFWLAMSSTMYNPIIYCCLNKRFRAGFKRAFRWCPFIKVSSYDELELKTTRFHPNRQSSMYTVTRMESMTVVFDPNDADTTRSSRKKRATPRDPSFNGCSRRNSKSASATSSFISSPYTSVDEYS
As to the kind of experiment: Competitive Binding Assay: The affinity of compounds of the invention for the human NK-3 receptor was determined by measuring the ability of compounds of the invention to competitively and reversibly displace a well-characterized NK-3 radioligand in a concentration-dependent manner.3H-SB222200 Binding Competition Assay with Human NK-3 ReceptorThe ability of compounds of the invention to inhibit the binding of the NK-3 receptor selective antagonist 3H-SB222200 was assessed by an in vitro radioligand binding assay. Membranes were prepared from Chinese hamster ovary recombinant cells stably expressing the human NK-3 receptor. The membranes were incubated with 5 nM 3H-SB222200 (ARC) in a HEPES 25 mM/NaCl 0.1M/CaCl2 1 mM/MgCl2 5 mM/BSA 0.5%/Saponin 10 μg/ml buffer at pH 7.4 and various concentrations of compounds of the invention. The amount of 3H-SB222200 bound to the receptor was determined after filtration by the quantification of membrane associated radioactivity using the TopCount-NXT reader (Packard).

Assay [2] deals with T1, Neuromedin-K receptor. As to the kind of experiment: Functional Assay: Chinese Hamster Ovary recombinant cells expressing the human NK-3 receptor and a construct that encodes the photoprotein apoaequorin were used for this assay. The antagonist activity of compounds of the invention is measured following pre-incubation (3 minutes) of the compound (at various concentrations) with the cells, followed by addition of the reference agonist (NKA) at a final concentration equivalent to the EC80 (3 nM) and recording of emitted light (FDSS 6000 Hamamatsu) over the subsequent 90-second period. The intensity of the emitted light is integrated using the reader software. Compound antagonist activity is measured based on the concentration-dependent inhibition of the luminescence response to the addition of Neurokinin A.

Two compounds from ChEMBL document CHEMBL3886889, “Substituted [1,2,4]triazolo[4,3-a]pyrazines as selective NK-3 receptor antagonists” (2016) can be followed below.

What is called Ki is the equilibrium dissociation constant of an inhibitor or competing ligand from its target. The term IC50 denotes the concentration at which inhibition is half-maximal.

As for `CCC1c2nnc(-c3nc(C)ns3)n2CCN1C(=O)c1ccc(F)cc1` (racemic), the Ki in assay [1] came to 150 nM. Further, in assay [2], the IC50 was determined as 220 nM.
For `Cc1nsc(-c2nnc3n2CCN(C(=O)c2ccc(F)cc2)C3CCO)n1` (racemic), in that order: 59 nM and 170 nM.
